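Exposure lasted 48 hours, with cells grown in 96-well plates and compounds tested at five concentrations. At the GI50, growth is halved. TGI is the concentration that stops growth completely.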
Columns and labels:
Assay in all cases: NCI tumour cell line growth inhibition, 48 h
DU-145 prostate = tested on: DU-145 prostate
A549 NSCLC = tested on: A549 NSCLC
SNB-19 CNS = tested on: SNB-19 CNS
SK-MEL-5 melanoma = tested on: SK-MEL-5 melanoma
TK-10 renal = tested on: TK-10 renal
HCT-15 colon = tested on: HCT-15 colon
NCI-H23 lung = tested on: NCI-H23 lung
OVCAR-3 ovarian = tested on: OVCAR-3 ovarian
SN12C renal = tested on: SN12C renal
MALME-3M melanoma = tested on: MALME-3M melanoma

Structure (SMILES) | GI50 (DU-145 prostate) | TGI (DU-145 prostate) | GI50 (A549 NSCLC) | TGI (A549 NSCLC) | GI50 (SNB-19 CNS) | TGI (SNB-19 CNS) | GI50 (SK-MEL-5 melanoma) | TGI (SK-MEL-5 melanoma) | GI50 (TK-10 renal) | TGI (TK-10 renal) | GI50 (HCT-15 colon) | TGI (HCT-15 colon) | GI50 (NCI-H23 lung) | TGI (NCI-H23 lung) | GI50 (OVCAR-3 ovarian) | TGI (OVCAR-3 ovarian) | GI50 (SN12C renal) | TGI (SN12C renal) | GI50 (MALME-3M melanoma) | TGI (MALME-3M melanoma)
Nc1nnc(Cn2c(-c3ccccc3)nc3ccc(Br)cc3c2=O)s1 | 85.4 µM | > 100 µM | 25 µM | > 100 µM | > 100 µM | > 100 µM | 26.8 µM | 86.2 µM | 32 µM | 83.9 µM | 31.6 µM | > 100 µM | 40.8 µM | > 100 µM | 40 µM | > 100 µM | 18.1 µM | 77.6 µM | – | –
Cc1cc(C)nc(SC2=C(Nc3cccc(Cl)c3C)C(=O)N(Cc3ccccc3)C2=O)n1 | > 160 µM | > 160 µM | > 160 µM | > 160 µM | > 160 µM | > 160 µM | > 160 µM | > 160 µM | > 160 µM | > 160 µM | > 160 µM | > 160 µM | > 160 µM | > 160 µM | > 160 µM | > 160 µM | – | – | > 160 µM | > 160 µM
NC(=O)/C=C/NC(=O)/C=N\O | – | > 100 µM | – | – | – | > 100 µM | – | > 100 µM | – | – | – | > 100 µM | – | – | – | > 100 µM | – | > 100 µM | – | > 100 µM
COc1ccc(-c2c(-c3cc(OC)c4c(c3)OCO4)noc2N)cc1 | 0.041 µM | 1.97 µM | 0.0663 µM | > 100 µM | 0.0708 µM | > 100 µM | 0.0288 µM | 0.485 µM | 10.4 µM | 49.7 µM | 0.0431 µM | > 100 µM | 0.0329 µM | 20.9 µM | 0.0203 µM | 0.0483 µM | 0.147 µM | > 93 µM | – | –
CC(=O)OC1CC2C(C)(C)C(=O)C=CC2(C)C2CCC3(C)C(c4ccoc4)OC(=O)C4OC43C12C (stereo unspecified) | – | 11 µM | – | 86.9 µM | – | > 100 µM | – | 19.2 µM | – | > 100 µM | – | 35.4 µM | – | 41.5 µM | – | > 100 µM | – | 17.2 µM | – | –
CC(=O)[O][Hg][c]1ccccc1 | 1.25 µM | 2.72 µM | – | – | 1.46 µM | 3.05 µM | 0.472 µM | 1.82 µM | 0.512 µM | 1.36 µM | 0.277 µM | 0.877 µM | 0.682 µM | 3.46 µM | 0.147 µM | 0.295 µM | 0.234 µM | 0.644 µM | 0.506 µM | 1.62 µM
O=C1C(Cl)=C(Nc2cccc(O)c2)C(=O)N1c1ccccc1Cl | 30.9 µM | > 100 µM | 50 µM | > 100 µM | 40.6 µM | > 100 µM | 18.8 µM | 65.6 µM | – | – | 35.2 µM | > 100 µM | 32.2 µM | > 100 µM | 21.5 µM | 48.5 µM | 17.3 µM | 46.4 µM | 10.9 µM | 69.1 µM
COC(=O)C(Cc1nc2ccc(Cl)cc2[nH]c1=O)/C(=N/NC(N)=O)C(=O)Nc1ccc(Cl)cc1 (stereo unspecified) | – | – | – | > 100 µM | – | > 100 µM | – | > 100 µM | – | > 100 µM | – | > 100 µM | – | > 100 µM | – | > 100 µM | – | > 100 µM | – | > 100 µM
O=C1C2c3[nH]c4ccccc4c3[C@@H]3CCCCC3C2C(=O)N1c1ccccc1 (stereo partly specified) | – | – | – | > 100 µM | – | > 100 µM | – | 32.1 µM | – | 68.7 µM | – | > 100 µM | – | 39.2 µM | – | 30.1 µM | – | 32.4 µM | – | 38.4 µM
Cc1nc2n(c(=O)c1CCN1CCC(c3noc4cc(F)ccc34)CC1)CCCC2 | > 50 µM | > 50 µM | > 50 µM | > 50 µM | > 50 µM | > 50 µM | – | – | > 50 µM | > 50 µM | > 50 µM | > 50 µM | > 50 µM | > 50 µM | > 50 µM | > 50 µM | > 50 µM | > 50 µM | > 50 µM | > 50 µM
OC(c1ccccn1)C1CNc2ccccc21 (stereo unspecified) | – | – | – | > 100 µM | – | > 100 µM | – | > 100 µM | – | > 100 µM | – | > 100 µM | – | > 100 µM | – | > 100 µM | – | > 100 µM | – | > 100 µM
N#CC1(C=O)c2ccccc2C=CN1C(=O)c1ccccc1 (stereo unspecified) | – | – | – | > 100 µM | – | > 100 µM | – | 47.3 µM | – | > 100 µM | – | > 100 µM | – | > 100 µM | – | 52.8 µM | – | > 100 µM | – | > 100 µM
CCC[CH2][Sn]([CH2]CCC)([O]C(=O)C1CCC(=O)N1)[O]C(=O)C1CCC(=O)N1 (stereo unspecified) | – | – | 2.01 µM | 3.64 µM | 0.303 µM | 0.909 µM | 0.461 µM | 1.65 µM | 0.24 µM | 0.682 µM | 0.182 µM | 0.353 µM | 0.147 µM | 0.384 µM | 0.218 µM | 0.663 µM | 0.341 µM | 1.2 µM | 0.0783 µM | 0.243 µM
CCCCC#CC#Cc1cccc(=O)o1 | 21.9 µM | 50.8 µM | 39.2 µM | > 100 µM | 12.6 µM | 27.7 µM | – | – | 14.3 µM | 28.3 µM | 20.2 µM | 39.5 µM | 18.4 µM | 36.2 µM | 23.9 µM | 69.6 µM | 15.1 µM | 38.8 µM | 14.1 µM | 27.6 µM
c1ccc(COCC2OC3c4ccccc4COC3C2OCc2ccccc2)cc1 (stereo unspecified) | – | – | – | > 100 µM | – | > 100 µM | – | > 100 µM | – | > 100 µM | – | > 100 µM | – | > 100 µM | – | > 100 µM | – | > 100 µM | – | > 100 µM
Cc1ccc(S(=O)(=O)Cc2nc(-c3ccc(C(=O)NCc4cccnc4)cc3)oc2C)cc1 | 0.0907 µM | > 100 µM | > 21.5 µM | > 100 µM | 0.0869 µM | > 100 µM | 2.85 µM | > 100 µM | > 67.8 µM | > 100 µM | 0.0524 µM | > 100 µM | – | – | 8.1 µM | > 100 µM | < 0.01 µM | > 100 µM | 27.5 µM | > 100 µM
COc1ccc(-c2csc(-c3cc(Cl)cc(Cl)c3Cl)n2)cc1 | 63.9 µM | > 100 µM | 68.3 µM | > 100 µM | 50.3 µM | > 100 µM | 32.2 µM | > 100 µM | > 100 µM | > 100 µM | 73.5 µM | > 100 µM | – | – | 86.8 µM | > 100 µM | > 100 µM | > 100 µM | 81.1 µM | > 100 µM
